Experimental data taken from PMC9953746, “Dimeric Benzodiazepines as Peptide Mimetics to Overcome p53-Dependent Drug Resistance of Tumors” (Biomolecules, 2023).
Where two headings read alike, the source gives them in different places. Marks after values point to notes of the source that are not given here.

Experiments:
[1] = tested on: MDA-MB-435; parameters: method as in PMID 26594756, PMID 32095421; conditions: in vitro; cited from earlier work
[2] = tested on: normal IKHE cell line; parameters: method as in PMID 26594756, PMID 32095421; conditions: in vitro; cited from earlier work
[3] = tested on: HCT-116; parameters: method as in PMID 26594756, PMID 32095421; conditions: in vitro; cited from earlier work
[4] = tested on: Calu-3; parameters: method as in PMID 26594756, PMID 32095421; conditions: in vitro; cited from earlier work
[5] = tested on: HepG2; parameters: method as in PMID 26594756, PMID 32095421; conditions: in vitro; cited from earlier work
[6] = tested on: HCT116 cells; test: IncuCyte live-cell imaging, cell proliferation and death assay, HCT116; format: cell-based, human; conditions: 40 µM; for time at which cell death starts to increase significantly, HCT116: SYTOX Green Dead Cell Stain; for confluence, HCT116: up to 72 h, untreated 90%, DMSO 84% on the third day
Text: (§1) The cell proliferation and death were estimated in the IncuCyte S3 live-cell imaging system using the SYTOX™ Green Dead Cell Stain (Thermo, cat. no: S34860) and analyzed using the IncuCyte 2019B Rev2 software (Essen BioScience, Ann Arbor, MI, USA), according to the manufacturer’s instructions (https://www.sartorius.com/en/products/live-cell-imaging-analysis/live-cell-analysis-resources/live-cell-imaging-and-analsis-handbook (accessed on 21 October 2022)). The HCT116 and HCT116 p53^−/− cells were seeded in 96-well culture plates at a density of 5000 cells per well 24 h before the treatment. Four wells were considered for each experimental point. Treatments with 10, 11, cisplatin (40 μM), or dimethyl sulfoxide (which was used as a negative control at a concentration equal to the one used to dissolve 10 and 11) were carried out for up to 72 h, and images were recorded every 2 h during this time. The experiment was performed twice.

[7] = tested on: normal skin fibroblasts BJ; test: MTT cell viability assay, BJ; format: cell-based, human; conditions: 72 h, read-out: IC50 BJ (normal skin)
Text: (§2) The following cell lines were used in this study: epidermoid carcinoma A-431 (ATCC® CRL-1555), lung carcinomas A549 (ATCC® CCL-185) and NCI-H1299 (ATCC® CRL-5803), colorectal carcinomas HCT116 (ATCC® CCL-247) and HCT116p53^−/−, normal skin fibroblasts BJ (ATCC® CRL-2522), and normal lung fibroblasts MRC-5 (ATCC® CCL-171). The HCT116 p53^−/− cell line was a kind gift from Professor Bert Vogelstein (John Hopkin’s University, Baltimore, MD, USA). The remaining cell lines were purchased from ATCC (Manassas, VA, USA). The cells were cultured in minimal, Dulbecco’s modified Eagle’s, or Ham’s F-12K medium supplemented with 10% fetal bovine serum (Gibco by Thermo Fisher Scientific, Waltham, MA, USA) and grown under standard culture conditions (37°C, 5% CO2) in a humidified incubator with an oxygen concentration of 21%. All of the experiments were performed with mycoplasma-free cells.
(§3) The viability of the cells was assayed by measuring the conversion of MTT (3-(4,5-dimethylthiazol-2-yl)-2,5-diphenyltetrazolium bromide) to formazan (the rate of this reaction is proportional to the number of surviving cells). The cells were seeded in 96-well culture plates at a density of 3500–5000 cells per well 24 h before the treatment. Six wells were considered for each experimental point (technical repeats). Treatments with increasing concentrations of 10, 11, or cisplatin (0.6–80 μM) were performed for 72 h. The MTT stock solution (Sigma-Aldrich by Merck, Darmstadt, Germany) was added at a final concentration of 0.5 mg/mL. After 4 h of incubation at 37 °C, the water-insoluble formazan was dissolved in a lysis buffer containing 20% SDS, 50% DMF, 2.5% hydrochloric acid, and 2.5% acetic acid. The optical densities were measured at 570 nm using a scanning multi-well spectrophotometer (PARADIGM Detection Platform; Beckman Coulter, Brea, CA, USA). The ratio of the absorbance value of each tested group to the absorbance value of the untreated control was calculated, and each tested group’s cell viability was expressed as a percentage of the control. […]

[8] = tested on: epidermoid carcinoma A-431; test: MTT cell viability assay, A-431; format: cell-based, human; conditions: for IC50: read-out: IC50 A-431 (epidermoid cancer); for SI index: IC50 BJ/IC50 A-431: selectivity index, normal skin BJ vs A-431
Text: as §2
(§4) The viability of the cells was assayed by measuring the conversion of MTT (3-(4,5-dimethylthiazol-2-yl)-2,5-diphenyltetrazolium bromide) to formazan (the rate of this reaction is proportional to the number of surviving cells). The cells were seeded in 96-well culture plates at a density of 3500–5000 cells per well 24 h before the treatment. Six wells were considered for each experimental point (technical repeats). Treatments with increasing concentrations of 10, 11, or cisplatin (0.6–80 μM) were performed for 72 h. The MTT stock solution (Sigma-Aldrich by Merck, Darmstadt, Germany) was added at a final concentration of 0.5 mg/mL. After 4 h of incubation at 37 °C, the water-insoluble formazan was dissolved in a lysis buffer containing 20% SDS, 50% DMF, 2.5% hydrochloric acid, and 2.5% acetic acid. The optical densities were measured at 570 nm using a scanning multi-well spectrophotometer (PARADIGM Detection Platform; Beckman Coulter, Brea, CA, USA). The ratio of the absorbance value of each tested group to the absorbance value of the untreated control was calculated, and each tested group’s cell viability was expressed as a percentage of the control. The cell viability assays were performed at least in triplicate using independent cell cultures.

[9] = tested on: lung carcinoma A549; test: MTT cell viability assay, A549; format: cell-based, human; conditions: for IC50: read-out: IC50 A549 (lung cancer)
Text: as §2, §4

[10] = tested on: lung carcinoma NCI-H1299; test: MTT cell viability assay, NCI-H1299; format: cell-based, human; conditions: for IC50: read-out: IC50 NCI-H1299 (lung cancer)
Text: as §2, §4

[11] = tested on: HCT116 p53^−/− cells; test: IncuCyte live-cell imaging, cell proliferation and death assay, HCT116p53-/-; format: cell-based, human; conditions: 40 µM; for time at which cell death starts to increase significantly, HCT116p53^−/−: SYTOX Green Dead Cell Stain; for confluence, HCT116p53^−/−: up to 72 h, untreated 88%, DMSO 83% on the third day
Text: as §1

[12] = tested on: normal lung fibroblasts MRC-5; test: MTT cell viability assay, MRC-5; format: cell-based, human; conditions: read-out: IC50 MRC-5 (normal lung)
Text: as §2, §4

[13] = tested on: colorectal carcinoma HCT116; test: MTT cell viability assay, HCT116; format: cell-based, human; conditions: read-out: IC50 HCT116 (colon cancer)
Text: as §2, §3

[14] = tested on: colorectal carcinoma HCT116p53^−/−; test: MTT cell viability assay, HCT116p53-/-; format: cell-based, human; conditions: for IC50: 72 h, read-out: IC50 HCT116p53^−/− (colon cancer); for SI index: IC50 HCT116p53^−/−/IC50 HCT116: ratio of p53 knockout to wild-type HCT116
Text: as §2, §4

[15] = tested on: solid tumors; parameters: method as in PMID 4959850; conditions: cited from earlier work
[16] = tested on: Heps (liver cancer) cell line; parameters: method as in earlier work; conditions: cited from earlier work
[17] = tested on: Sarcoma 180; parameters: method as in earlier work; conditions: cited from earlier work
[18] = ratio of IC50 values vs cisplatin

Structure (SMILES): N#CCC[C@H]1NC(=O)c2ccccc2-n2c1nc1ccccc1c2=O [auranthine]
- cytotoxic activity against MDA-MB-435 [1]: no cytotoxic activities
- cytotoxic activity against normal IKHE [2]: no cytotoxic activities
- cytotoxic activity against HCT-116 [3]: no cytotoxic activities
- cytotoxic activity against Calu-3 [4]: no cytotoxic activities
- cytotoxic activity against HepG2 [5]: no cytotoxic activities

Structure (SMILES): O=C1NC(CSCSCC2NC(=O)c3cc([N+](=O)[O-])ccc3NC2=O)C(=O)Nc2ccc([N+](=O)[O-])cc21 (centres unmarked) [Compound 10, 3,3′-((methylenebis(sulfanediyl))bis(methylene))bis(7-nitro-3,4-dihydro-1H-benzo[e][1,4]diazepine-2,5-dione)]
- time at which cell death starts to increase significantly, HCT116 [6]: 24 h
- confluence, HCT116 [6]: up to 16%
- IC50 ([7]; Homo sapiens, Skin fibroblast, MTT, mean ± SD, n = 3): 16.7 ± 2.77 µM
- IC50 ([8]; Homo sapiens, A-431, MTT, 72 h, mean ± SD, n = 3): 3.47 ± 0.32 µM
- SI index: IC50 BJ/IC50 A-431 [8]: 4.88 ± 1.08 (**) ^c (ns) ^b
- IC50 ([9]; Homo sapiens, A549, MTT, 72 h, mean ± SD, n = 3): 1.6 ± 0.21 µM
- times more cytotoxic than cisplatin, A549 [9, 18]: 3.72 times
- IC50 ([10]; Homo sapiens, NCI-H1299, MTT, 72 h, mean ± SD, n = 3): 1.07 ± 0.25 µM
- times more cytotoxic than cisplatin, NCI-H1299 [10, 18]: 5.33 times
- time at which cell death starts to increase significantly, HCT116p53^−/− [11]: 24 h
- confluence, HCT116p53^−/− [11]: up to 16%
- IC50 ([12]; Homo sapiens, MRC5, 72 h, MTT, 72 h, mean ± SD, n = 3): 16.9 ± 2.96 µM
- IC50 ([12]; MTT, 72 h, mean ± SD, n = 3): 16.9 ± 2.96 µM
- IC50 ([13]; Homo sapiens, HCT-116, MTT, 72 h, mean ± SD, n = 3): 5.31 ± 0.23 µM
- IC50 ([14]; Homo sapiens, MTT, mean ± SD, n = 3): 5.56 ± 0.74 µM
- SI index: IC50 HCT116p53^−/−/IC50 HCT116 [14]: 1.05 ± 0.19 (ns) ^c (*) ^b

Structure (SMILES): Cc1ccc2c(c1O)NC(O)C1CC(/C=C/C(N)=O)=CN1C2=O (centres unmarked) [Anthramycin, anthramycin]
- growth of solid tumors in mice [15]: inhibited the growth of solid tumors in mice

Structure (SMILES): N.N.[Cl][Pt][Cl] [Cisplatin, cisplatin, reference compound]
- time of highest number of SYTOX Green positive cells, HCT116 [6]: 48 h
- time at which cell death starts to increase significantly, HCT116 [6]: 18 h
- confluence, HCT116 [6]: up to 16%
- IC50 ([7]; MTT, mean ± SD, n = 3): 5.06 ± 0.94 µM
- IC50 ([8]; MTT, 72 h, mean ± SD, n = 3): 1.56 ± 0.29 µM
- SI index: IC50 BJ/IC50 A-431 [8]: 3.26 ± 0.41 (**) ^c
- SI index: IC50 BJ/IC50 A-431 ([8]; listed as cisplatin): 3.26 ± 0.41
- IC50 ([9]; MTT, 72 h, mean ± SD, n = 3): 5.95 ± 1.28 µM
- IC50 ([10]; MTT, 72 h, mean ± SD, n = 3): 5.7 ± 0.88 µM
- time to plateau of cell death, HCT116p53^−/− [11]: about 72 h
- cell death level (SYTOX Green positive cells) at plateau, HCT116p53^−/− ([11]; after about 72 h): 5116.3 ± 211.41
- confluence, HCT116p53^−/− [11]: up to 16%
- IC50 ([12]; MTT, 72 h, mean ± SD, n = 3): 4.17 ± 0.88 µM
- IC50 ([13]; MTT, 72 h, mean ± SD, n = 3): 3.51 ± 1.16 µM
- IC50 ([14]; MTT, mean ± SD, n = 3): 10.8 ± 2.86 µM
- SI index: IC50 HCT116p53^−/−/IC50 HCT116 [14]: 3.18 ± 0.79 (*) ^c

Structure (SMILES): O=C1NC(CSCSCC2NC(=O)c3ccc([N+](=O)[O-])cc3NC2=O)C(=O)Nc2cc([N+](=O)[O-])ccc21 (centres unmarked) [Compound 11, 3,3′-((methylenebis(sulfanediyl))bis(methylene))bis(8-nitro-3,4-dihydro-1H-benzo[e][1,4]diazepine-2,5-dione)]
- time at which cell death starts to increase significantly, HCT116 [6]: 36 h
- confluence, HCT116 [6]: up to 16%
- IC50 ([7]; Homo sapiens, Skin fibroblast): 23.1 ± 2.34 µM
- IC50 ([8]; Homo sapiens, A-431, 72 h): 3.97 ± 0.87 µM
- IC50 ([9]; Homo sapiens, A549, 72 h): 16.3 ± 4.65 µM
- SI index: IC50 MRC-5/IC50 A549 ([9]; selectivity index, normal lung MRC-5 vs A549): 1.86 ± 0.79 (ns) ^c (ns) ^b
- IC50 ([10]; Homo sapiens, NCI-H1299, 72 h): 4.91 ± 1.45 µM
- time at which cell death starts to increase significantly, HCT116p53^−/− [11]: 36 h
- confluence, HCT116p53^−/− [11]: up to 16%
- IC50 ([12]; Homo sapiens, MRC5, 72 h): 28.7 ± 7.6 µM
- IC50 ([13]; Homo sapiens, HCT-116, 72 h): 4.9 ± 0.53 µM
- IC50 ([14]; Homo sapiens): 6.07 ± 0.9 µM
- SI index: IC50 HCT116p53^−/−/IC50 HCT116 [14]: 1.26 ± 0.3 (ns) ^c (*) ^b

Structure (SMILES): CN1c2ccccc2C(=O)n2c3ccccc3c3ccnc1c32 [evodiagenine]
- cytotoxic activity against Heps (liver cancer) [16]: exhibits cytotoxic activity
- cytotoxic activity against Sarcoma 180 [17]: exhibits cytotoxic activity
